Publication PMC12250170, “Synthesis of Novel Podophyllotoxin–Benzothiazole Congeners and Their Biological Evaluation as Anticancer Agents” (International Journal of Molecular Sciences, 2025)
Where two headings read alike, the source gives them in different places.

Columns and labels:
[1] = tested on: MCF-7 (breast cancer) cells; experiment: In vitro cytotoxicity, crystal violet assay, MCF-7; format: cell-based, human
Method: (§1) The synthesized compounds were tested and evaluated for their cytotoxicity using an in vitro cytotoxicity assay. We studied five cancer cell lines and one non-cancerous cell line. The cells were purchased from the American Type Culture Collection (ATCC), United States, including HeLa (cervical), LoVo (colorectal), MCF-7 (breast), SKOV3 (ovarian), B16F10 (murine melanoma), and HaCaT (human keratinocyte). Dulbecco’s modified Eagle’s medium (containing 10% FBS) was used to culture HeLa, MCF-7, B16F10, and HaCaT cells, while RPMI 1640 medium (containing 10% FBS) was used for SKOV3 and LoVo cells. The cells were cultured in 25 cm^2 culture flasks (Corning, Corning, NY, USA) in a humidified atmosphere of 5% CO2 at 37 °C and passaged every three days with standard Trypsin-EDTA solution (Gibco, Thermo Fisher Scientific, Waltham, MA, USA). All compounds were initially prepared as stock solutions at a concentration of 10 mM (in DMSO). Serial dilutions were performed in the indicated medium to achieve the required concentration gradient of compounds (20 µM, 10 µM, 5 µM, 2.5 µM, 1.25 µM, 0.625 µM, 0.312 µM). The maximum percentage of DMSO used in the compound solutions was 0.1%, based on the procedure previously described by our group.
(§2) This assay was performed in reference to the method already described. In brief, the cell lines (HeLa, MCF-7, and SKOV-3) were seeded in the indicated medium in a 96-well culture plate (Nest Biotechnology, Wuxi, China) at a density of 1 × 10^4 cells per well (100 µL) in quadruplicates and then incubated at 37 °C in a 5% CO2 atmosphere. After 24 h of incubation, 100 µL aliquots of the compounds in medium at increasing concentrations were added to each well, and the cells were further incubated for 48 h. After the incubation period, the cells were washed with PBS twice, and then with 70% ethanol, followed by staining with 0.05% crystal violet solution in water (ChemPur, Piekary Slaskie, Poland) for 20 min. The excess crystal violet was washed out with distilled water several times. The stained cells then solubilized in 1% Triton™ X-100 Surfact-Amps (POCH SA, Gliwice, Poland) or 10% PBS. The absorbance of each well was measured using Fluostar plate reader at […].
(§3) Data analysis was carried out using GraphPad Prism 5.0.3. Calculations were performed using MS-Excel version 2021. The cytotoxic effect was expressed as the relative viability of treated cells (percentage growth control) and was calculated as follows: % relative viability = Ae−Ab/Ac−Ab×100% , where Ae is experimental absorbance/fluorescence intensity, Ac is the absorbance/ fluorescence intensity of growth control (only cells with medium), and Ab is the absorbance/fluorescence intensity of a blank (only medium). The IC50 values were obtained by using the sigmoidal dose–response function in GraphPad Prism. The results were expressed as mean ± standard deviation (SD).

[2] = tested on: HaCaT (human keratinocyte) cells; experiment: In vitro cytotoxicity, PrestoBlue assay, HaCaT (non-tumorigenic); format: cell-based; details: 48 h, read-out: IC50 ± SD, HaCaT
[3] = tested on: SKOV-3 (ovarian cancer) cells; experiment: In vitro cytotoxicity, crystal violet assay, SKOV-3; format: cell-based, human
Method: as §1, §2, §3

[4] = tested on: HeLa (cervix cancer) cells; experiment: In vitro cytotoxicity, crystal violet assay, HeLa; format: cell-based, human
Method: as §1, §2, §3

[5] = tested on: B16F10 (murine melanoma) cells; experiment: In vitro cytotoxicity, PrestoBlue assay, B16F10; format: cell-based; details: read-out: IC50 ± SD, B16F10
Method: as §1
(§4) The PrestoBlue assay was performed according to the method previously reported by Strus et al.. The cells (LoVo and B16F10) were seeded in the indicated medium in a 96-well culture plate (Nest Biotechnology) at a density of 1 × 10^4 cells per well (100 µL) and incubated at 37 °C in a 5% CO2 atmosphere. After 24 h of incubation, 100 µL aliquots of the compounds in medium were added to each well, and the cells were further incubated for 48 h. After 48 h, the old medium was removed, and 100 µL of fresh medium was added. Then, 10 µL of PrestoBlue solution (Thermo Fisher Scientific, Waltham, MA, USA) was added to each well and incubated for 60 min. The fluorescence intensity was measured with excitation at 544 nm and emission at 615 nm using a Fluorstar microplate reader (BMG Labtech, Ortenberg, Germany). The results were expressed as a percentage of the intensity relative to that of control cells (non-treated cells).
as §3

HeLa cells = experiment: Cell cycle analysis by flow cytometry (propidium iodide); format: cell-based, human
Method: To determine the possible mechanisms of compounds 7 and 11 in inhibiting the proliferation of cancer cells, cell cycle analysis was performed with the flow cytometry method, as shown in Figure 3. Compound 7 was previously reported to inhibit proliferation of HaCaT cells via cell cycle arrest in G2/M [18]. As a reference, HeLa cells were treated with the indicated concentrations of compounds 7 and 11 for 24 h and 48 h, and the cell cycle phases distribution of treated cells was determined with the propidium iodide (PI) method, as previously described. The effects of novel podophyllotoxin derivatives on cell cycle phase distribution were evaluated in cells exposed to these compounds for 24 h or 48 h. Three compounds were compared: podophyllotoxin 1, KL-3 derivative 7, and its analog lacking the ester group 11.
For cell cycle analysis, HeLa cells were treated for 24 or 48 h with compounds 7 and 11 at concentrations of 5 µM and 10 µM. After the incubation period, the cells were fixed in a freezing medium (ice-cold 70% ethanol solution in PBS) and stored at −20 °C. The cell suspension was then centrifuged, washed with PBS, and resuspended in PBS containing 200 µg of DNase-free RNase A (Sigma) for 20 min at room temperature. Propidium iodide (Sigma) was added to a final concentration of 5 µg/mL, and the cells were stained for at least 2 h at 4 °C. The analysis was performed using a FACSCalibur flow cytometer (Becton Dickinson, San Diego, CA, USA) and analyzed with CellQuest software, v.3.3.

[6] = tested on: LoVo (colorectal cancer) cells; experiment: In vitro cytotoxicity, PrestoBlue assay, LoVo; format: cell-based, human; details: 48 h, read-out: IC50 ± SD, LoVo
Method: as §1, §4, §3

[7] = tested on: cancer cell lines (MCF-7, SKOV-3, B16F10, LOVO, and HeLa) and HaCaT; experiment: In vitro cytotoxicity assay, results summarised over the cell line panel; format: cell-based; details: for Cytotoxicity in words: all tested cell lines
Method: The cytotoxicity properties of semi-synthesized compounds 7–15 was evaluated against five types of cancer cell lines including, human: HeLa (cervix cancer), LoVo (colorectal cancer), MCF-7 (breast cancer), SKOV-3 (ovarian cancer), and murine: B16F10 (malignant melanoma). Thus, various human tumor cell lines representing major types of malignant cancers were included in the study protocol. Non-tumorigenic HaCaT cells were used as a representative model of normal (non-cancerous) cells. The crystal violet assay and PrestoBlue assay were used to evaluate the cytotoxic/cytostatic effect. We also included the cytotoxicity data of podophyllotoxin and etoposide as reference values.
as §1, §2, §4
Data analysis was carried out using GraphPad Prism 5.0.3. Calculations were performed using MS-Excel version 2021. […]

[8] = Homo sapiens, MCF7; MCF-7, crystal violet assay, 48 h; read-out: IC50 ± SD, MCF-7
[9] = Homo sapiens, SK-OV-3; SKOV-3, crystal violet assay, 48 h; read-out: IC50 ± SD, SKOV-3
[10] = Homo sapiens; HeLa, crystal violet assay, 48 h; read-out: IC50 ± SD, HeLa
[11] = concentration and time not given
[12] = Homo sapiens, MCF7, 48 h, MCF-7, crystal violet assay, read-out: IC50 ± SD, MCF-7
[13] = Homo sapiens, SK-OV-3, 48 h, SKOV-3, crystal violet assay, read-out: IC50 ± SD, SKOV-3
[14] = Homo sapiens, HeLa, 48 h, HeLa, crystal violet assay, 48 h; read-out: IC50 ± SD, HeLa
[15] = MCF-7, crystal violet assay, 48 h; read-out: IC50 ± SD, MCF-7
[16] = MCF-7, SKOV-3, B16F10, LOVO, HeLa, read-out: IC50, range over all tested cancer cell lines
[17] = SKOV-3, crystal violet assay, 48 h; read-out: IC50 ± SD, SKOV-3
[18] = HeLa, crystal violet assay, 48 h; read-out: IC50 ± SD, HeLa

Structure (SMILES)	IC50 [1, 8] [µM]	IC50 ([2]; Homo sapiens) [µM]	IC50 [3, 9] [µM]	IC50 [4, 10] [µM]	Selectivity Index (SI) ([4]; SI = IC50HaCaT/IC50HeLa)	IC50 ([5]; Mus musculus, B16-F10, 48 h) [µM]	IC50 ([6]; Homo sapiens) [µM]	IC50 [1, 12] [µM]	IC50 [3, 13] [µM]	IC50 [4, 14] [µM]	Cytotoxicity in words [7]	also measured
COc1cc([C@@H]2c3cc4c(cc3[C@H](O)[C@H]3COC(=O)[C@H]23)OCO4)cc(OC)c1OC [Compound 1, Podophyllotoxin]	0.0039 ± 0.0005	0.0046 ± 0.0006	0.017 ± 0.0028	0.0089 ± 0.0003	0.52	0.092 ± 0.05	0.033 ± 0.0077	–	–	–	–	Cells arrested in the G2/M phase (HeLa cells; [11]): approximately 90%
COc1cc([C@@H]2c3cc4c(cc3[C@@H](O[C@@H]3O[C@@H]5CO[C@@H](C)O[C@H]5[C@H](O)[C@H]3O)[C@H]3COC(=O)[C@H]23)OCO4)cc(OC)c1O [Compound 2, etoposide, reference compound]	–	1.32 ± 0.16	–	–	0.23	6.68 ± 2.32	2.48 ± 0.47	0.31 ± 0.017	3.15 ± 0.38	5.73 ± 1.48	–	–
COC(=O)C1C(c2nc3ccccc3s2)=Cc2cc3c(cc2C1c1cc(OC)c(OC)c(OC)c1)OCO3 (stereo not drawn) [Compound 7]	–	–	–	–	1.26	–	–	–	–	–	–	IC50 [1, 15]: 0.59 ± 0.05 µM; IC50 [2]: 0.86 ± 0.05 µM; IC50 [7, 16]: 0.68 to 2.88 µM; IC50 [3, 17]: 1.1 ± 0.13 µM; IC50 [4, 18]: 0.68 ± 0.05 µM; IC50 ([5]; 48 h): 1.78 ± 0.55 µM; Cells arrested in the G2/M phase (HeLa cells; [11]): approximately 90%; IC50 [6]: 0.83 ± 0.08 µM
COC(=O)[C@H]1C(c2nc3cc(C(F)(F)F)ccc3s2)=Cc2cc3c(cc2[C@H]1c1cc(OC)c(OC)c(OC)c1)OCO3 [Compound 8]	–	> 20	–	–	–	> 20	> 20	> 20	> 20	> 20	inactive	–
COC(=O)C1C(c2nc3cc(Cl)ccc3s2)=Cc2cc3c(cc2C1c1cc(OC)c(OC)c(OC)c1)OCO3 (stereo not drawn) [Compound 9]	2.02 ± 0.11	13.2 ± 2.89	10.4 ± 0.73	1.81 ± 0.13	7.31	> 20	11.1 ± 2.55	–	–	–	–	IC50 ([7]; read-out: IC50, range over HeLa and MCF-7): 1.81 to 2.02 µM
COC(=O)C1C(c2nc3ccccc3s2)=Cc2cc3c(cc2C1c1cc(OC)c(OC)c(OC)c1)OCO3 (stereo not drawn) [Compound 10]	–	–	–	–	–	–	–	–	–	–	no cytotoxicity	IC50 [1, 15]: > 20 µM; IC50 [2]: > 20 µM; IC50 [3, 17]: > 20 µM; IC50 [4, 18]: > 20 µM; IC50 ([5]; 48 h): > 20 µM; IC50 [6]: > 20 µM
COc1cc([C@H]2CC(c3nc4ccccc4s3)=Cc3cc4c(cc32)OCO4)cc(OC)c1OC [Compound 11]	–	1.9 ± 0.14	–	–	–	1.93 ± 0.25	2.88 ± 0.87	1.98 ± 0.49	1.79 ± 0.28	1.54 ± 0.24	–	IC50 [7, 16]: 0.68 to 2.88 µM; IC50 ([7]; read-out: IC50, range over all tested cell lines): 1.54 to 2.88 µM; Cells arrested in the G2/M phase (HeLa cells; higher concentrations, after 48 h of exposure): approximately 43%
COC(=O)c1c(-c2nc3ccccc3s2)cc2cc3c(cc2c1-c1cc(OC)c(OC)c(OC)c1)OCO3 [Compound 12]	–	> 20	–	–	–	> 20	> 20	> 20	> 20	> 20	no effect	–
COc1cc([C@@H]2c3cc4c(cc3C=C(c3nc5ccccc5s3)[C@@H]2CO)OCO4)cc(OC)c1OC [Compound 13]	> 20	> 20	> 20	> 20	–	> 20	> 20	–	–	–	no effect	–
COC(=O)[C@H]1C(c2nc3ccccc3s2)=Cc2cc(O)c(O)cc2[C@H]1c1cc(OC)c(O)c(OC)c1 [Compound 14]	–	13.1 ± 1.75	–	–	<1	> 20	11.7 ± 1.02	11.9 ± 1.75	15.3 ± 1.31	> 20	–	–
COC(=O)[C@H]1C(c2nc3ccccc3s2)=Cc2cc3c(cc2[C@H]1c1cc(OC)c(O)c(OC)c1)OCO3 [Compound 15]	3.44 ± 0.81	7.59 ± 0.76	3.73 ± 0.75	2.49 ± 0.25	3.05	3.76 ± 0.49	10.9 ± 0.95	–	–	–	–	IC50 ([7]; read-out: IC50, range over all the cell lines tested, except for LoVo cells): 2.49 to 3.76 µM
